The test addresses human F508del-CFTR (Homo sapiens, UniProt P13569, DEL508-508). Put plainly: F508del-CFTR cell surface expression (corrector activity), DiscoveRx ß-galactosidase complementation chemiluminescence assay in recombinant U2OS cell line.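 On all read-outs here: U2OS cells co-expressing ProLink-tagged F508del-CFTR and a membrane-anchored enzyme acceptor, where more surface CFTR restores β-galactosidase activity measured by chemiluminescence.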 As to conditions: for EC50: EC50, F508del-CFTR cell surface expression, U2OS cells, 16h compound incubation, geomean values; for Emax: in relation to Emax of corrector lumacaftor (=100%), arithmetic mean values.

Each structure is given as a SMILES string.

Chain of human F508del-CFTR (P13569 with tags, fused parts or gaps DEL508-508): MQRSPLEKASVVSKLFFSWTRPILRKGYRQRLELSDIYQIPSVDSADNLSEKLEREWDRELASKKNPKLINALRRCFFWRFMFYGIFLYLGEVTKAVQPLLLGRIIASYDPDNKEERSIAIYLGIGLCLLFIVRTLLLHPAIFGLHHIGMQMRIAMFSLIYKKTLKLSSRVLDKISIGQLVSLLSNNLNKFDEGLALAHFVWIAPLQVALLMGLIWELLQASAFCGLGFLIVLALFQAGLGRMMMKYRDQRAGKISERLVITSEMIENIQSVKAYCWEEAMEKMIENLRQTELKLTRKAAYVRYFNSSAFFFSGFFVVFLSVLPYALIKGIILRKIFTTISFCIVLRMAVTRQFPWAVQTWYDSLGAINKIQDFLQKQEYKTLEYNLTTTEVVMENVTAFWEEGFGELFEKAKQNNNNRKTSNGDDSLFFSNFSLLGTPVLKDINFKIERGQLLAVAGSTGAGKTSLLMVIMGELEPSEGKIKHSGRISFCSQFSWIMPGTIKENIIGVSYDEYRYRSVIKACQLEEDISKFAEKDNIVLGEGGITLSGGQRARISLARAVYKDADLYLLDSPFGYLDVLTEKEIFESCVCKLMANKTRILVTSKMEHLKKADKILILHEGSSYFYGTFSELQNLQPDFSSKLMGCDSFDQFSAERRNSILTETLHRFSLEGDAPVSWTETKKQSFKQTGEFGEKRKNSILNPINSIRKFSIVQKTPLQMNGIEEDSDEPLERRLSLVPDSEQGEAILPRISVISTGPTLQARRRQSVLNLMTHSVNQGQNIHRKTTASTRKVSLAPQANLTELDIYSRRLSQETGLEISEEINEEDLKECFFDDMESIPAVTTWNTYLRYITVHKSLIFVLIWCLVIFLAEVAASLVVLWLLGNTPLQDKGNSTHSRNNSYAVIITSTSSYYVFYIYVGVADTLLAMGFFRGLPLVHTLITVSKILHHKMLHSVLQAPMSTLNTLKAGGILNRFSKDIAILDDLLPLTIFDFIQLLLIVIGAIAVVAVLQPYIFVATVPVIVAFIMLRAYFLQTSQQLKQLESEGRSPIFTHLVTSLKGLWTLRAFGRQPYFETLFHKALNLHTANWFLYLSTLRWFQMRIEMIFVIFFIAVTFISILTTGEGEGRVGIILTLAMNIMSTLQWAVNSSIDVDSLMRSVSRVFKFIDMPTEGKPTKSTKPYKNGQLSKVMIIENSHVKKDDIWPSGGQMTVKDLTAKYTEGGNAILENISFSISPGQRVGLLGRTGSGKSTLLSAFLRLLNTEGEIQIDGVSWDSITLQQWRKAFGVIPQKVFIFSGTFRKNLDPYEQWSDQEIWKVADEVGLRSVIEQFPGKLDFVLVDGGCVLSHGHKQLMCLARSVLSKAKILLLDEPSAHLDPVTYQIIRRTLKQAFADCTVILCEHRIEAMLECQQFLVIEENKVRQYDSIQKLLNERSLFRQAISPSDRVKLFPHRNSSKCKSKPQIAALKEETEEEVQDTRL

A word on the EC50: it is the midpoint of the concentration-response curve. For orientation: Emax means the greatest response seen or fitted, relative to the assay's reference. Take `CC(C)C[C@H]1C(=O)N2CCCC[C@H]2C(=O)N[C@H](Cc2ccccc2)COc2cnc3ccc(F)cc3c2C(=O)N[C@H](C(=O)NCCc2noc(C3CC3)n2)CC(=O)N1C` [Example 520, (9S,13S,19aS,22R)-22-benzyl-N-(2-(5-cyclopropyl-1,2,4-oxadiazol-3-yl)ethyl)-5-fluoro-13-isobutyl-12-methyl-7,11,14,20-tetraoxo-7,8,9,10,11,12,13,14,17,18,19,19a,20,21,22,23-hexadecahydro-16H-pyrido[2′,11:6,7][1]oxa[4,7,10,14]tetraazacycloheptadecino[17,16-c]quinoline-9-carboxamide]: the 50% effective concentration (EC50) was found to be 345 nM. The maximal response (Emax) (U2OS) was determined as 155%.
Consider `CC(C)C[C@H]1C(=O)N2CCCC[C@H]2C(=O)N[C@H](Cc2ccccc2)COc2cnc3ccc(F)cc3c2C(=O)N[C@H](C(=O)NCCc2nc(C3CC3)no2)CC(=O)N1C` [Example 521, (9S,13S,19aS,22R)-22-benzyl-N-(2-(3-cyclopropyl-1,2,4-oxadiazol-5-yl)ethyl)-5-fluoro-13-isobutyl-12-methyl-7,11,14,20-tetraoxo-7,8,9,10,11,12,13,14,17,18,19,19a,20,21,22,23-hexadecahydro-16H-pyrido[2′,1′:6,7][1]oxa[4,7,10,14]tetraazacycloheptadecino[17,16-c]quinoline-9-carboxamide], for which the EC50 stood at 433 nM. Moreover, the Emax (U2OS) stood at 191%.
Turning to `CC(C)C[C@H]1C(=O)N2CCCC[C@H]2C(=O)N[C@H](Cc2ccccc2)COc2cnc3c(F)cccc3c2C(=O)N[C@H](C(=O)NCCc2ccc(-n3nccn3)cc2)CC(=O)N1C` [Example 522, (9S,13S,19aR,22R)-N-(4-(2H-1,2,3-triazol-2-yl)phenethyl)-22-benzyl-3-fluoro-13-isobutyl-12-methyl-7,11,14,20-tetraoxo-7,8,9,10,11,12,13,14,17,18,19,19a,20,21,22,23-hexadecahydro-16H-pyrido[2′,1′:6,7][1]oxa[4,7,10,14]tetraazacycloheptadecino[17,16-c]quinoline-9-carboxamide], the EC50 was determined as 204 nM. Moreover, the Emax (U2OS) is 237%.
Turning to `COc1nccc2c1C(=O)N[C@H](C(=O)NCCc1cc(C3CC3)no1)CC(=O)N(C)[C@@H](CC(C)C)C(=O)N1CCCC[C@@H]1C(=O)N[C@H](Cc1ccccc1)CO2` [Example 523, (7S,11S,17aR,20R)-20-benzyl-N-(2-(3-cyclopropylisoxazol-5-yl)ethyl)-11-isobutyl-4-methoxy-10-methyl-5,9,12,18-tetraoxo-5,6,7,8,9,10,11,12,15,16,17,17a,18,19,20,21-hexadecahydro-14H-dipyrido[2,1-f:3′,4′-p][1]oxa[4,7,10,14]tetraazacycloheptadecine-7-carboxamide], the concentration for a half-maximal effect (EC50) turned out to be 483 nM. Also, the maximal effect (Emax) (U2OS) was 352%.
In the same order, the values of `CC(C)C[C@H]1C(=O)N2CCN(c3ccccc3)C[C@H]2C(=O)N[C@H](Cc2ccccc2)COc2cnc3ccc(F)cc3c2C(=O)N[C@H](C(=O)NCCc2cc(C3CC3)no2)CC(=O)N1C` [Example 524, (9S,13S,19aR,22R)-22-benzyl-N-(2-(3-cyclopropylisoxazol-5-yl)ethyl)-5-fluoro-13-isobutyl-12-methyl-7,11,14,20-tetraoxo-18-phenyl-7,8,9,10,11,12,13,14,17,18,19,19a,20,21,22,23-hexadecahydro-16H-pyrazino[2′,11:6,7][1]oxa[4,7,10,14]tetraazacycloheptadecino[17,16-c]quinoline-9-carboxamide] are 60 nM and 339%.
The matching figures for `CC(C)C[C@H]1C(=O)N2CCN(c3ccccc3)C[C@H]2C(=O)N[C@H](Cc2ccccc2)COc2cnc3ccc(F)cc3c2C(=O)N[C@H](C(=O)NCCc2nc(C3CC3)no2)CC(=O)N1C` [Example 525, (9S,13S,19aR,22R)-22-benzyl-N-(2-(3-cyclopropyl-1,2,4-oxadiazol-5-yl)ethyl)-5-fluoro-13-isobutyl-12-methyl-7,11,14,20-tetraoxo-18-phenyl-7,8,9,10,11,12,13,14,17,18,19,19a,20,21,22,23-hexadecahydro-16H-pyrazino[2′,11:6,7][1]oxa[4,7,10,14]tetraazacycloheptadecino[17,16-c]quinoline-9-carboxamide]: 56 nM and 288%.
Turning to `COc1cc2c(cn1)OC[C@@H](Cc1ccccc1)NC(=O)[C@H]1CCCCN1C(=O)[C@H](CC(C)C)N(C)C(=O)C[C@@H](C(=O)NCCc1cc(C3CC3)on1)NC2=O` [Example 526, (7S,11S,17aR,20R)-20-benzyl-N-(2-(5-cyclopropylisoxazol-3-yl)ethyl)-11-isobutyl-3-methoxy-10-methyl-5,9,12,18-tetraoxo-5,6,7,8,9,10,11,12,15,16,17,17a,18,19,20,21-hexadecahydro-14H-dipyrido[2,1-f:4′,3′-p][1]oxa[4,7,10,14]tetraazacycloheptadecine-7-carboxamide], the EC50 was 394 nM and the Emax is given as 167%.
As for `Cc1cc(CCNC(=O)[C@@H]2CC(=O)N(C)[C@@H](CC(C)C)C(=O)N3CCCC[C@H]3C(=O)N[C@H](Cc3ccccc3)COc3cnc4ccc(Cl)cc4c3C(=O)N2)on1` [Example 527, (9S,13S,19aR,22R)-22-benzyl-5-chloro-13-isobutyl-12-methyl-N-(2-(3-methylisoxazol-5-yl)ethyl)-7,11,14,20-tetraoxo-7,8,9,10,11,12,13,14,17,18,19,19a,20,21,22,23-hexadecahydro-16H-pyrido[2′,11:6,7][1]oxa[4,7,10,14]tetraazacycloheptadecino[17,16-c]quinoline-9-carboxamide], the half-maximal effective concentration (EC50) was 151 nM. For the same molecule, the maximal response (Emax) (U2OS) came out at 318%.
In the same order, the values of `COc1cccc(CCNC(=O)[C@@H]2CC(=O)N(C)[C@@H](CC(C)C)C(=O)N3CCCC[C@@H]3C(=O)N[C@H](Cc3ccccc3)COc3cnc4ccc(Cl)cc4c3C(=O)N2)c1` [Example 528, (9S,13S,19aR,22R)-22-benzyl-5-chloro-13-isobutyl-N-(3-methoxyphenethyl)-12-methyl-7,11,14,20-tetraoxo-7,8,9,10,11,12,13,14,17,18,19,19a,20,21,22,23-hexadecahydro-16H-pyrido[2′,11:6,7][1]oxa[4,7,10,14]tetraazacycloheptadecino[17,16-c]quinoline-9-carboxamide] are 321 nM and 337%.
In the same order, the values of `COc1cc2c(cn1)OC[C@@H](Cc1ccccc1)NC(=O)[C@H]1CCCCN1C(=O)[C@H](CC(C)C)N(C)C(=O)C[C@@H](C(=O)NCCc1nc(C3CC3)no1)NC2=O` [Example 529, (7S,11S,17aR,20R)-20-benzyl-N-(2-(3-cyclopropyl-1,2,4-oxadiazol-5-yl)ethyl)-11-isobutyl-3-methoxy-10-methyl-5,9,12,18-tetraoxo-5,6,7,8,9,10,11,12,15,16,17,17a,18,19,20,21-hexadecahydro-14H-dipyrido[2,1-f:2′,3′-p][1]oxa[4,7,10,14]tetraazacycloheptadecine-7-carboxamide] are 947 nM and 206%.
Take `COc1cccc(CCNC(=O)[C@@H]2CC(=O)N(C)[C@@H](CC(C)C)C(=O)N(C)CC(=O)N[C@H](Cc3ccccc3)COc3ncc4ccccc4c3C(=O)N2)c1` [Example 530]: the EC50 was determined as 334 nM. Besides, the Emax (U2OS) stood at 353%.
The matching figures for `COc1cccc(CCNC(=O)[C@@H]2CC(=O)N(C)[C@@H](CC(C)C)C(=O)N(C)CC(=O)N[C@H](Cc3ccccc3)COc3ccc4cc(C)oc4c3C(=O)N2)c1` [Example 531, (8R,14S,18S)-8-benzyl-14-isobutyl-N-(3-methoxyphenethyl)-2,12,15-trimethyl-10,13,16,20-tetraoxo-7,8,9,10,11,12,13,14,15,16,17,18,19,20-tetradecahydrobenzofuro[7,6-p][1]oxa[4,7,10,14]tetraazacycloheptadecine-18-carboxamide]: 265 nM and 336%.
For `Cc1cc2ccc3c(c2o1)C(=O)N[C@H](C(=O)NCCc1cc(C2CC2)no1)CC(=O)N(C)[C@@H](CC(C)C)C(=O)N(C)CC(=O)N[C@H](Cc1ccccc1)CO3` [Example 532, (8R,14S,18S)-8-benzyl-N-(2-(3-cyclopropylisoxazol-5-yl)ethyl)-14-isobutyl-2,12,15-trimethyl-10,13,16,20-tetraoxo-7,8,9,10,11,12,13,14,15,16,17,18,19,20-tetradecahydrobenzofuro[7,6-p][1]oxa[4,7,10,14]tetraazacycloheptadecine-18-carboxamide], the EC50 is 397 nM. For the same molecule, the maximal effect (Emax) (U2OS) is 375%.
For `COc1cc(CCNC(=O)[C@@H]2CC(=O)N(C)[C@@H](CC(C)C)C(=O)N3CCCC[C@@H]3C(=O)N[C@H](Cc3ccccc3)COc3cc(C)nc(OC)c3C(=O)N2)on1` [Example 533, (7S,11S,17aR,20R)-20-benzyl-11-isobutyl-4-methoxy-N-(2-(3-methoxyisoxazol-5-yl)ethyl)-2,10-dimethyl-5,9,12,18-tetraoxo-5,6,7,8,9,10,11,12,15,16,17,17a,18,19,20,21-hexadecahydro-14H-dipyrido[2,1-f:3′,4′-p][1]oxa[4,7,10,14]tetraazacycloheptadecine-7-carboxamide], the EC50 is 221 nM. The maximal response (Emax) (U2OS) turned out to be 352%.
Regarding `Cc1cc(CCNC(=O)[C@@H]2CC(=O)N(C)[C@@H](CC(C)C)C(=O)N3CCCC[C@@H]3C(=O)N[C@H](Cc3ccccc3)COc3cnc4cccc(F)c4c3C(=O)N2)on1` [Example 534, (9S,13S,19aR,22R)-22-benzyl-6-fluoro-13-isobutyl-12-methyl-N-(2-(3-methylisoxazol-5-yl)ethyl)-7,11,14,20-tetraoxo-7,8,9,10,11,12,13,14,17,18,19,19a,20,21,22,23-hexadecahydro-16H-pyrido[2′,1′:6,7][1]oxa[4,7,10,14]tetraazacycloheptadecino[17,16-c]quinoline-9-carboxamide], the EC50 came to 273 nM. Besides, the Emax (U2OS) is 394%.

The record behind these values is patent publication US20240208992A1, “MACROCYCLES AS CFTR MODULATORS” (Idorsia Pharmaceuticals Ltd, priority 2021, published 2024).
